# Data reported in US20260097022A1, “COMPOUNDS AND USES THEREOF” (Integrated Biosciences, Inc., priority 2023, published 2026).
# Counter-ions that a name gives are not always drawn.
# Test system: etoposide-treated IMR-90 cells
# Assay: Etoposide-induced senescence model, resazurin cell viability (screen and dose-response)
# Format: cell-based, human
# Details: 1 μM, 3 days
# Protocol: Cell culture. Human lung fibroblast (IMR-90) cells were obtained from ATCC (CCL-186) and passaged less than 10 times (less than 30 population doublings) for all experiments described in this example, with the exception of high-passage cells used in the model of replicative senescence (see the section on Replicative senescence below). Cells were cultured in growth media comprising Eagle's Minimum Essential Medium (EMEM: ATCC 30-2003) supplemented with 10% fetal bovine serum (FBS: Thermo Fisher 16140071) and 1% penicillin-streptomycin (Thermo Fisher 15070063). Cells were incubated in a humidity-controlled incubator at 37° C., with 5% CO2. Cells were detached using trypsin-EDTA (0.05%; Gibco 25300120).
# Etoposide-induced senescence. IMR-90 cells were cultured as described above. At between 30 to 50% confluence, the media was replaced with complete growth media containing vehicle (0.5% dimethyl sulfoxide: DMSO, MilliporeSigma D5879) or complete growth media containing 50 μM etoposide (prepared as a 1:200 dilution of a 10 mM stock solution in DMSO; etoposide, MilliporeSigma E1383). Cells were treated for 2 days, after which the media was replaced with fresh growth media and cells were allowed to recover for 4 days. Cells were then plated as described below.
# Chemical screening. For all screening experiments. 99 μL of cells were plated into each well of a 96-well clear flat-bottom, black polystyrene tissue-culture-treated plate (Corning 3904) at a density of ˜10+ cells/well. Plates were incubated overnight for adhesion. The day after plating. 1 μL of each compound, prepared as either a 1 mM stock solution in DMSO (10 μM final concentration screen) or 0.1 mM stock solution in DMSO (1 μM final concentration screen), was added to each well using an Agilent Bravo liquid handler. A built-in slow mixing step involving aspirating and dispensing was used to enhance distribution of the added compounds in solution. Cells were incubated for 3 days, after which resazurin (MilliporeSigma R^7017) was added to each well to a final concentration of 0.15 mM. After an additional 1 day of incubation, the fluorescence excitation/emission at 550/590 nm was read using a SpectraMaxR M3 plate reader and manufacturer software (SoftMax Pro R 6). Experiments were performed in biological duplicate.
# Three-fold serial dilutions of compound were prepared in DMSO, then added to cell plates (final concentration of DMSO. 1%). Cell viability was then assayed as detailed above, and resazurin fluorescence values were linearly interpolated with respect to values from empty and positive control (non-treatment) wells. Experiments were performed in biological duplicate each on two independent occasions. When possible, chemical stocks from commercial suppliers were used: econazole nitrate (Cayman Chemical 20223), artenimol (Cayman Chemical 19846), and ABT-263 (Cayman Chemical 11500) were from Cayman Chemical, and dehydrodeguelin was aliquoted from the screening library.
# Calculation of cellular viability values in dose-response curves. […] For each sample, the fluorescence intensity value was normalized by the mean of two untreated control values. Cellular viability values are therefore indicated as fractions of the cellular viability of untreated controls. Vehicle (1% DMSO) control values are included in each dose-response curve. Experiments were performed in biological duplicate each on two independent occasions.
# Calculation of baseline cellular viability values. […] Additionally, baseline cellular viability values were calculated for untreated cells at the start of the experiment. Resazurin was added to a final concentration of 0.15 mM on the day of seeding (corresponding to day 0 in FIG. 7).
row,SMILES,senolytic activity in screen
1,"CN(C)CCCN1c2ccccc2CCc2ccccc21 [imipramine hydrochloride, reference compound]",active

# Same assay, conditions: 10 μM, 3 days; active: control viability >0.5, Snc/control ratio <0.7
row,SMILES,senolytic activity in screen
1,"C[C@@H]1O[C@@H](O[C@H]2C[C@@H](O)[C@]3(CO)[C@H]4[C@H](O)C[C@]5(C)[C@@H](C6=CC(=O)OC6)CC[C@]5(O)[C@@H]4CC[C@]3(O)C2)[C@H](O)[C@H](O)[C@H]1O [ouabain, reference compound]",active

# Same assay, conditions: etoposide-induced senescence model; ratio of IC50 values between etoposide- and DMSO-treated IMR-90 fibroblasts
row,SMILES,Therapeutic Index (TI)
1,COc1ccc(NC(=O)CSc2nc3ccc(NC(=O)c4ccc(C(C)(C)C)cc4)cc3s2)cc1 [compound 117],++ (compounds with a TI of 1 to 5 were labelled as ++)
2,Cc1ccc(NC(=O)C(C)Sc2nc3ccc(NC(=O)c4ccc(Cl)cc4)cc3s2)cc1 (centres unmarked) [compound 90],++ (compounds with a TI of 1 to 5 were labelled as ++)
3,O=C(Nc1ccc2nc(SCC(=O)N3CCc4ccccc43)sc2c1)c1cccc(F)c1 [compound 31],++ (compounds with a TI of 1 to 5 were labelled as ++)
4,COc1ccccc1C(=O)Nc1ccc2nc(SCC(=O)Nc3ccc(Cl)cc3)sc2c1 [compound 112],++ (compounds with a TI of 1 to 5 were labelled as ++)
5,Cc1ccccc1C(=O)Nc1ccc2nc(SCC(=O)N(C)c3ccccc3)sc2c1 [compound 125],++ (compounds with a TI of 1 to 5 were labelled as ++)
6,O=C(CSc1nc2ccc(NC(=O)c3ccccc3)cc2s1)Nc1ccc(F)cc1 [compound 140],++ (compounds with a TI of 1 to 5 were labelled as ++)
7,Cc1ccc(C(=O)Nc2ccc3nc(SCC(=O)Nc4ccc(C(C)C)cc4)sc3c2)cc1 [compound 24],+++ (compounds with a TI of >5 were labeled as +++)
8,COc1ccc(C(=O)Nc2ccc3nc(SCC(=O)N4CCc5ccccc54)sc3c2)cc1 [compound 33],++ (compounds with a TI of 1 to 5 were labelled as ++)
9,CCOc1ccc(C(=O)Nc2ccc3nc(SCC(=O)N(C)c4ccccc4)sc3c2)cc1 [compound 49],++ (compounds with a TI of 1 to 5 were labelled as ++)
10,COc1ccc(C(=O)Nc2ccc3nc(SCC(=O)Nc4cc(Cl)ccc4C)sc3c2)cc1 [compound 113],++ (compounds with a TI of 1 to 5 were labelled as ++)
11,COc1cccc(C(=O)Nc2ccc3nc(SCC(=O)Nc4ccccc4)sc3c2)c1 [compound 53],++ (compounds with a TI of 1 to 5 were labelled as ++)
12,Cc1cccc(NC(=O)CSc2nc3ccc(NC(=O)c4ccccc4)cc3s2)c1C [compound 150],+ (Compounds with a TI of <1 were labelled as +)
13,O=C(CSc1nc2ccc(NC(=O)c3ccc(Cl)cc3Cl)cc2s1)Nc1ccccc1 [compound 4],+++ (compounds with a TI of >5 were labeled as +++)
14,COC(=O)c1ccc(NC(=O)CSc2nc3ccc(NC(=O)c4ccccc4F)cc3s2)cc1 [compound 105],++ (compounds with a TI of 1 to 5 were labelled as ++)
15,COc1ccc(C(=O)Nc2ccc3nc(SCC(=O)Nc4ccccc4C)sc3c2)cc1 [compound 60],++ (compounds with a TI of 1 to 5 were labelled as ++)
16,Cc1ccccc1C(=O)Nc1ccc2nc(SCC(=O)Nc3ccc(Cl)cc3)sc2c1 [compound 100],++ (compounds with a TI of 1 to 5 were labelled as ++)
17,CCCCCCCCCCOc1ccc(C(=O)Nc2ccc3nc(SCC(=O)Nc4ccccc4)sc3c2)cc1 [compound 149],+ (Compounds with a TI of <1 were labelled as +)
18,O=C(Nc1ccc2nc(SCC(=O)N3CCc4ccccc43)sc2c1)c1ccccc1Cl [compound 132],++ (compounds with a TI of 1 to 5 were labelled as ++)
19,Cc1ccc(NC(=O)CSc2nc3ccc(NC(=O)c4ccccc4C)cc3s2)c(C)c1 [compound 99],++ (compounds with a TI of 1 to 5 were labelled as ++)
20,Cc1cc(C)cc(NC(=O)CSc2nc3ccc(NC(=O)c4ccccc4C)cc3s2)c1 [compound 118],++ (compounds with a TI of 1 to 5 were labelled as ++)
21,COc1ccccc1C(=O)Nc1ccc2nc(SCC(=O)Nc3ccc(C(C)=O)cc3)sc2c1 [compound 21],+++ (compounds with a TI of >5 were labeled as +++)

row,SMILES,Therapeutic Index (TI)
1,O=C(CSc1nc2ccc(NC(=O)c3ccccc3Cl)cc2s1)Nc1ccccc1 [compound 96],++ (compounds with a TI of 1 to 5 were labelled as ++)
2,CCOc1ccc(C(=O)Nc2ccc3nc(SCC(=O)Nc4ccc(C)cc4C)sc3c2)cc1 [compound 47],++ (compounds with a TI of 1 to 5 were labelled as ++)
3,CCCCOc1ccc(NC(=O)CSc2nc3ccc(NC(=O)c4cccc(C)c4)cc3s2)cc1 [compound 126],++ (compounds with a TI of 1 to 5 were labelled as ++)
4,COc1ccc(C(=O)Nc2ccc3nc(SCC(=O)Nc4ccccc4)sc3c2)c(F)c1 [compound 172],+++ (compounds with a TI of >5 were labeled as +++)
5,Cc1ccccc1C(=O)Nc1ccc2nc(SCC(=O)Nc3ccccc3Cl)sc2c1 [compound 110],++ (compounds with a TI of 1 to 5 were labelled as ++)
6,Cc1cc(C)c(NC(=O)CSc2nc3ccc(NC(=O)c4ccccc4C)cc3s2)c(C)c1 [compound 72],++ (compounds with a TI of 1 to 5 were labelled as ++)
7,CC(=O)c1ccc(NC(=O)CSc2nc3ccc(NC(=O)c4ccc(Cl)cc4)cc3s2)cc1 [compound 114],++ (compounds with a TI of 1 to 5 were labelled as ++)
8,O=C(CSc1nc2ccc(NC(=O)c3ccccc3)cc2s1)Nc1cccc([N+](=O)[O-])c1 [compound 87],++ (compounds with a TI of 1 to 5 were labelled as ++)
9,CCCCOc1ccc(NC(=O)CSc2nc3ccc(NC(=O)c4ccc(Cl)cc4)cc3s2)cc1 [compound 77],++ (compounds with a TI of 1 to 5 were labelled as ++)
10,COc1ccc(C(=O)Nc2ccc3nc(SCC(=O)Nc4ccc(C)c(Cl)c4)sc3c2)cc1 [compound 74],++ (compounds with a TI of 1 to 5 were labelled as ++)
11,Cc1cccc(NC(=O)CSc2nc3ccc(NC(=O)c4ccccc4Cl)cc3s2)c1C [compound 95],++ (compounds with a TI of 1 to 5 were labelled as ++)
12,COc1ccccc1C(=O)Nc1ccc2nc(SCC(=O)Nc3ccccc3C)sc2c1 [compound 130],++ (compounds with a TI of 1 to 5 were labelled as ++)
13,Cc1ccccc1C(=O)Nc1ccc2nc(SCC(=O)Nc3ccc(Br)cc3)sc2c1 [compound 121],++ (compounds with a TI of 1 to 5 were labelled as ++)
14,CCCCOc1ccc(NC(=O)CSc2nc3ccc(NC(=O)c4ccccc4)cc3s2)cc1 [compound 89],++ (compounds with a TI of 1 to 5 were labelled as ++)
15,COc1ccccc1C(=O)Nc1ccc2nc(SCC(=O)Nc3ccc(F)cc3)sc2c1 [compound 84],++ (compounds with a TI of 1 to 5 were labelled as ++)
16,COC(=O)c1ccc(NC(=O)CSc2nc3ccc(NC(=O)c4ccc(C)cc4)cc3s2)cc1 [compound 169],+ (Compounds with a TI of <1 were labelled as +)
17,CCOc1ccc(C(=O)Nc2ccc3nc(SCC(=O)Nc4cc(C)cc(C)c4)sc3c2)cc1 [compound 43],++ (compounds with a TI of 1 to 5 were labelled as ++)
18,CCCCOc1ccc(NC(=O)CSc2nc3ccc(NC(=O)c4cccc5ccccc45)cc3s2)cc1 [compound 54],++ (compounds with a TI of 1 to 5 were labelled as ++)
19,O=C(CSc1nc2ccc(NC(=O)c3ccccc3Cl)cc2s1)Nc1ccc(F)cc1 [compound 23],+++ (compounds with a TI of >5 were labeled as +++)
20,COc1ccc(C(=O)Nc2ccc3nc(SCC(=O)N(C)c4ccccc4)sc3c2)cc1 [compound 156],+ (Compounds with a TI of <1 were labelled as +)
21,Cc1cccc(NC(=O)CSc2nc3ccc(NC(=O)c4cccc(C)c4)cc3s2)c1 [compound 136],++ (compounds with a TI of 1 to 5 were labelled as ++)
